This is an account of results in patent US8962596B2 (Array BioPharma Inc., priority 2010, dated 2015).

As a reminder, the pIC50 is the IC50 on a negative log10 scale, so that one unit is a factor of ten. A low value points to a high IC50.

Common to all, as to type: biochemical
One assay addresses T1, Human Tyk2 kinase domain (Homo sapiens, UniProt P29597).
T1 construct: comprising amino acids 886 to 1187 with 10 additional histidine residues; 10xHis (histidine tag) (C, cleaved yes); made in house
T1 sequence (P29597 886-1187): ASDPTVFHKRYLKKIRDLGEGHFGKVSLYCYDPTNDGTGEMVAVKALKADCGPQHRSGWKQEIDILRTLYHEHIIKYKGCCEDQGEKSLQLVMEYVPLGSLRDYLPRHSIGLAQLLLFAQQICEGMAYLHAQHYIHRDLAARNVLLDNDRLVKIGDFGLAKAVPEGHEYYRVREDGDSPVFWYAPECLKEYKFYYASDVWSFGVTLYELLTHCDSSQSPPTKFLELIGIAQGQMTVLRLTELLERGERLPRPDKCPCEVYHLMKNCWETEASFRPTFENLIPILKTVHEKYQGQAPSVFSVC
In words: Tyk2 Inhibition Assay (Omnia kinase fluorescence peptide substrate assay). The conditions noted are these: averaged IC50 ranges; assay of Example A; 10 μM (Km app) or 1 mM ATP, 2 nM Tyk2. An outline of the steps:
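2 nM His-tag-cleaved kinase domain (aa 886–1187) with 8 μM Omnia Y12 peptide, 10 μM (Km app) or 1 mM ATP, pH 7.4 HEPES/10 mM MgCl2, 2% DMSO. Fluorescence (ex 360/em 485 nm) every 50 s for 45 min; IC50 from 4-parameter fit of POC, top dose 10 μM.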

A further assay has as its target T2, JAK1 (Homo sapiens, UniProt P23458).
T2 construct: purchased Invitrogen Corporation, Carlsbad, Calif; PV4775
Briefly: JAK1 Inhibition Assay (Omnia kinase fluorescence peptide substrate assay). As to conditions: averaged IC50 ranges; assay of Example B; 40 μM (Km app) or 1 mM ATP, 15 nM JAK1.

The next assay concerns the target T3, JAK2 (Homo sapiens, UniProt O60674).
T3 construct: purchased Invitrogen Corporation, Carlsbad, Calif; PV4288
In words: JAK2 Inhibition Assay (Omnia kinase fluorescence peptide substrate assay). The conditions noted are these: averaged IC50 ranges; assay of Example C; 25 μM (Km app) or 1 mM ATP, 5 nM JAK2. In a few lines:
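5 nM JAK2 phosphorylated 10 μM Omnia Y7 peptide with ATP at 25 μM (Km app) or 1 mM, in 25 mM HEPES pH 7.4, 10 mM MgCl2, 0.01% Triton X-100, 1 mM DTT, 2% DMSO. Fluorescence (360/485 nm) was read every 50 s for 45 min. 10-point 3-fold series from 10 μM; POC versus uninhibited and background controls, 4-parameter logistic IC50.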

Another assay deals with T4, JAK3 (Homo sapiens, UniProt P52333).
T4 construct: purchased Invitrogen Corporation, Carlsbad, Calif; PV4080
T4 sequence (P52333 1-1124): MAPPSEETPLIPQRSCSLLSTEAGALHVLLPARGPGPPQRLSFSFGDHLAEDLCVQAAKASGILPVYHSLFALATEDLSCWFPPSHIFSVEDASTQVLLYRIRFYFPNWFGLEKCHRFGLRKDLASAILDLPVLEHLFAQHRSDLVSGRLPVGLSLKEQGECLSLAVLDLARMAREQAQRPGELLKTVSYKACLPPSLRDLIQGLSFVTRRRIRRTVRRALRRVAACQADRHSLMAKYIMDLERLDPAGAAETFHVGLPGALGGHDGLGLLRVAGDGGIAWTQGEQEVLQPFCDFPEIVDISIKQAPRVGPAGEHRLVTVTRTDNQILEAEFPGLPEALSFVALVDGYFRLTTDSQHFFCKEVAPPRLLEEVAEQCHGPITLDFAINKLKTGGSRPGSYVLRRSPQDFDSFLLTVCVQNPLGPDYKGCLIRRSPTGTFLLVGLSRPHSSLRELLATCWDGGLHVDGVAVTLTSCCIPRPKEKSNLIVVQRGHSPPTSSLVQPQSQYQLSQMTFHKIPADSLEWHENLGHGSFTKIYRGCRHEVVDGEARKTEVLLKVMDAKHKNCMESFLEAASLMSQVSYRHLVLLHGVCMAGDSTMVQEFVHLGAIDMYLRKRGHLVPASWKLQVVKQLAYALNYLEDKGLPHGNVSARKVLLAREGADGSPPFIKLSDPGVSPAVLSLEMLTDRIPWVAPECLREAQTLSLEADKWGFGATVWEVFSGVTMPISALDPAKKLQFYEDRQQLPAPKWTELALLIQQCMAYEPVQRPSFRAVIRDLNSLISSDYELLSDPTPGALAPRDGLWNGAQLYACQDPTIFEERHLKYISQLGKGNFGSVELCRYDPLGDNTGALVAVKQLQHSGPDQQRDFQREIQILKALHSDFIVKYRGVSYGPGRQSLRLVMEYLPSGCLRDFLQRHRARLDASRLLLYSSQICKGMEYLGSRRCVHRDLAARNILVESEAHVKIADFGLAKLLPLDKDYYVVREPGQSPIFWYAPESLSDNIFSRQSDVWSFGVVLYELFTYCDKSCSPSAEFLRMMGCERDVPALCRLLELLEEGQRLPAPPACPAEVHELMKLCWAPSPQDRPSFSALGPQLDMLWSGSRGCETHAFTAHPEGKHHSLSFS
Briefly: JAK3 Inhibition Assay (Omnia kinase fluorescence peptide substrate assay). As to conditions: averaged IC50 ranges; assay of Example D; 10 μM (Km app) or 1 mM ATP, 2.5 nM JAK3. In a few lines: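 Kinase at 2.5 nM with 10 µM Omnia Y7 peptide and 10 µM (Km app) or 1 mM ATP in 25 mM HEPES pH 7.4, 10 mM MgCl2, 1 mM DTT, 0.01% Triton X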

pIC50: −log10 of the molar value. Bounds are passed on as bounds.

T2 sequence (P23458 whole entry): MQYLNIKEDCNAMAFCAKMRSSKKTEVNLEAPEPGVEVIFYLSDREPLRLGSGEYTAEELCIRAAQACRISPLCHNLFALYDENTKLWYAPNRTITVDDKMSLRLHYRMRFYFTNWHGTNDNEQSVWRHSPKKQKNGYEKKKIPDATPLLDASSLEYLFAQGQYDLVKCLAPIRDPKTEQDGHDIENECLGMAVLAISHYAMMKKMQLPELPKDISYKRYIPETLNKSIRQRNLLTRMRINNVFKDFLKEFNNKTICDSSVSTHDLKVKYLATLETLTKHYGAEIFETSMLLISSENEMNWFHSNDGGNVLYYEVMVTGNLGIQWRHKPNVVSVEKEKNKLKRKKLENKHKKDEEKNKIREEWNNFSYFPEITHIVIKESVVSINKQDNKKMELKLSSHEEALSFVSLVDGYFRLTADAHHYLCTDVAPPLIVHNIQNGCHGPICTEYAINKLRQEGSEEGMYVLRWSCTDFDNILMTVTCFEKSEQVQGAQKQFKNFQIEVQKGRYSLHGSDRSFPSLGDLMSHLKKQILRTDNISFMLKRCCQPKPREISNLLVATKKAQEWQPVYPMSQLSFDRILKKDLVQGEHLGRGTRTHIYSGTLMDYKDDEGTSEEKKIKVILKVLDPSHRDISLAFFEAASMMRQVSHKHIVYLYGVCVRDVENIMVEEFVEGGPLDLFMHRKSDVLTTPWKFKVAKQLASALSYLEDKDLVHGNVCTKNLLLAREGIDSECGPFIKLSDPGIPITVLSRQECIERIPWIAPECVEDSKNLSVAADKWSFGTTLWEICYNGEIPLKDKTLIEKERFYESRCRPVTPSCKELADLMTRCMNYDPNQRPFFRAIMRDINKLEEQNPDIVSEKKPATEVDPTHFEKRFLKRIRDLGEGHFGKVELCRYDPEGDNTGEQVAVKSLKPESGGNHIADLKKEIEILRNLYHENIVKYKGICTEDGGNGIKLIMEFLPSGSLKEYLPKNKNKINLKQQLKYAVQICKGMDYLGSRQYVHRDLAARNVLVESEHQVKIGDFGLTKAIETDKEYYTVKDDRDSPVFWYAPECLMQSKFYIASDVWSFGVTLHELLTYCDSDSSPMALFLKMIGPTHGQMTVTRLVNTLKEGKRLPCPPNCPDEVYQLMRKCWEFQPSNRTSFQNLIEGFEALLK
T3 sequence (O60674 whole entry): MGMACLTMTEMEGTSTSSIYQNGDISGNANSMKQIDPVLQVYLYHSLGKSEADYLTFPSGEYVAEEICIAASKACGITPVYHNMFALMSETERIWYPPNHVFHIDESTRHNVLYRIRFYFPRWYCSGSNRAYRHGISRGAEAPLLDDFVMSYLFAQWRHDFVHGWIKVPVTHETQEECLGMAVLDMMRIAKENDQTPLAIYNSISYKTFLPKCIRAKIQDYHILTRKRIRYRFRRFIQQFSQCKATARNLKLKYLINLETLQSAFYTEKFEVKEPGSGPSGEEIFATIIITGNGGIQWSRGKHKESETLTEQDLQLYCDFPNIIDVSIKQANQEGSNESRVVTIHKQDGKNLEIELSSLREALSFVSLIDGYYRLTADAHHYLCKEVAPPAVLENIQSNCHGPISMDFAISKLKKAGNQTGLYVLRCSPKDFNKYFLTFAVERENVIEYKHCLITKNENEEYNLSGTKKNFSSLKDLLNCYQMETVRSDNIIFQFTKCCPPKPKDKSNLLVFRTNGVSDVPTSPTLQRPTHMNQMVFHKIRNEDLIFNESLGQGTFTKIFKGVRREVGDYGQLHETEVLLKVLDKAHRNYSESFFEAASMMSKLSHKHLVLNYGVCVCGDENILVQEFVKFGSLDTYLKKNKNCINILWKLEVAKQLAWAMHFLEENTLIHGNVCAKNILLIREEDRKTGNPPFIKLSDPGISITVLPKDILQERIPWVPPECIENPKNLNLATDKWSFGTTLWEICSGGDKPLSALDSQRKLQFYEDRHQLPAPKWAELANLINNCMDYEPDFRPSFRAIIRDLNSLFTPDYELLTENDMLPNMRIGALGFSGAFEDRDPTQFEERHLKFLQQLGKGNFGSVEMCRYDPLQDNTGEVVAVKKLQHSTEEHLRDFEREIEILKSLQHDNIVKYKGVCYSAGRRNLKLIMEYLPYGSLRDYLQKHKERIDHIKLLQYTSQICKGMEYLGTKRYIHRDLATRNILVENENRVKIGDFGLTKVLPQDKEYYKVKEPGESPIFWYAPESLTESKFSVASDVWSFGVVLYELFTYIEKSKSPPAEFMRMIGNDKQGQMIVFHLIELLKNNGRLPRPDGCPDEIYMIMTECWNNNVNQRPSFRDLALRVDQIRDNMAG

As to `CN1CC(CC#N)(n2cc(-c3nc(-c4cnn(C)c4)cc4nccn34)cn2)C1` [Example 83, 2-(1-methyl-3-(4-(7-(1-methyl-1H-pyrazol-4-yl)imidazo[1,2-c]pyrimidin-5-yl)-1H-pyrazol-1-yl)azetidin-3-yl)acetonitrile], the pIC50 against Human Tyk2 kinase domain was 7.00 to 8.00; against JAK1, under 6.00; against JAK2, 6.00 to 7.00; at JAK3 it was under 6.00.
Take `Cn1cc(-c2cc3ncc(Cl)n3c(-c3cnn(C4(CC#N)CN(S(=O)(=O)C(F)(F)F)C4)c3)n2)cn1` [Example 155, 2-(3-(4-(3-chloro-7-(1-methyl-1H-pyrazol-4-yl)imidazo[1,2-c]pyrimidin-5-yl)-1H-pyrazol-1-yl)-1-((trifluoromethyl)sulfonyl)azetidin-3-yl)acetonitrile]: the pIC50 was over 8.00 against Human Tyk2 kinase domain, 7.00 to 8.00 on JAK1, 7.00 to 8.00 against JAK2 and 6.00 to 7.00 on JAK3.
As for `Cn1cc(-c2cc3nccn3c(-c3cnn(C4(CC#N)CN(C(=O)C5(C(F)(F)F)CC5)C4)c3)n2)cn1` [Example 65, 2-(3-(4-(7-(1-Methyl-1H-pyrazol-4-yl)imidazo[1,2-c]pyrimidin-5-yl)-1H-pyrazol-1-yl)-1-(1-(trifluoromethyl)cyclopropanecarbonyl)azetidin-3-yl)acetonitrile], the pIC50 against Human Tyk2 kinase domain is 7.00 to 8.00; against JAK1 it was 7.00 to 8.00; on JAK2 it was 7.00 to 8.00; on JAK3 it was 6.00 to 7.00.
Take `N#CCC(C1CC1)n1cc(-c2nc(-c3ccc4c(c3)CNCC4)cc3nccn23)cn1` (centres unmarked) [Example 54, 3-Cyclopropyl-3-(4-(7-(1,2,3,4-tetrahydroisoquinolin-7-yl)imidazo[1,2-c]pyrimidin-5-yl)-1H-pyrazol-1-yl)propanenitrile]: the negative logarithm of the IC50 (pIC50) against Human Tyk2 kinase domain was over 8.00; against JAK1, 7.00 to 8.00; at JAK2 it was 7.00 to 8.00; against JAK3 it was 6.00 to 7.00.
Turning to `Cn1cc(-c2cc3nccn3c(-c3cnn(C4(CC#N)CCN(S(=O)(=O)C(F)(F)F)C4)c3)n2)cn1` (centres unmarked) [Example 133, 2-(3-(4-(7-(1-methyl-1H-pyrazol-4-yl)imidazo[1,2-c]pyrimidin-5-yl)-1H-pyrazol-1-yl)-1-(trifluoromethylsulfonyl)pyrrolidin-3-yl)acetonitrile], the pIC50 was over 8.00 against Human Tyk2 kinase domain, 7.00 to 8.00 on JAK1, 7.00 to 8.00 against JAK2 and 6.00 to 7.00 against JAK3.
Take `CC(C)N1CC(CC#N)(n2cc(-c3nc(-c4cnn(C)c4)cc4nccn34)cn2)C1` [Example 82, 2-(1-isopropyl-3-(4-(7-(1-methyl-1H-pyrazol-4-yl)imidazo[1,2-c]pyrimidin-5-yl)-1H-pyrazol-1-yl)azetidin-3-yl)acetonitrile]: the pIC50 was 7.00 to 8.00 against Human Tyk2 kinase domain, under 6.00 on JAK1, 6.00 to 7.00 at JAK2 and under 6.00 against JAK3.
As for `Cn1cc(-c2cc3nccn3c(-c3cnn(C4(CC#N)CN(C5CC5)C4)c3)n2)cn1` [Example 66, 2-(1-Cyclopropyl-3-(4-(7-(1-methyl-1H-pyrazol-4-yl)imidazo[1,2-c]pyrimidin-5-yl)-1H-pyrazol-1-yl)azetidin-3-yl)acetonitrile], the pIC50 at Human Tyk2 kinase domain is 7.00 to 8.00; at JAK1, 6.00 to 7.00; against JAK2, 6.00 to 7.00; against JAK3, under 6.00.
In the case of `Cn1cc(-c2cc3nccn3c(-c3cnn(C4(CC#N)CN(CC5CCC5)C4)c3)n2)cn1` [Example 87, 2-(1-(cyclobutylmethyl)-3-(4-(7-(1-methyl-1H-pyrazol-4-yl)imidazo[1,2-c]pyrimidin-5-yl)-1H-pyrazol-1-yl)azetidin-3-yl)acetonitrile], the pIC50 against Human Tyk2 kinase domain was 7.00 to 8.00; at JAK1, under 6.00; against JAK2, 6.00 to 7.00; against JAK3, under 6.00.
With `Cn1ccc(-c2cc3nccn3c(-c3ccn(C4(CC#N)CN(CC(F)(F)F)C4)n3)n2)cc1=O` [Example 144, 2-(3-(3-(7-(1-methyl-2-oxo-1,2-dihydropyridin-4-yl)imidazo[1,2-c]pyrimidin-5-yl)-1H-pyrazol-1-yl)-1-(2,2,2-trifluoroethyl)azetidin-3-yl)acetonitrile], the negative-log IC50 (pIC50) was 7.00 to 8.00 on Human Tyk2 kinase domain, under 6.00 at JAK1, 6.00 to 7.00 on JAK2 and under 6.00 against JAK3.
With `CN1CCN(c2ccc(-c3cc4nccn4c(-c4cnn(C(CC#N)C5CC5)c4)n3)cc2)CC1` (centres unmarked) [Example 59, 3-Cyclopropyl-3-(4-(7-(4-(4-methylpiperazin-1-yl)phenyl)imidazo[1,2-c]pyrimidin-5-yl)-1H-pyrazol-1-yl)propanenitrile], the pIC50 against Human Tyk2 kinase domain was over 8.00; at JAK1 it was 7.00 to 8.00; at JAK2, 7.00 to 8.00; against JAK3, 6.00 to 7.00.
Regarding `CC(C)(CC#N)n1cc(-c2nc(-c3ccc(N4CCOCC4)cc3)cc3nccn23)cn1` [Example 116, 3-methyl-3-(4-(7-(4-morpholinophenyl)imidazo[1,2-c]pyrimidin-5-yl)-1H-pyrazol-1-yl)butanenitrile], the pIC50 at Human Tyk2 kinase domain was 7.00 to 8.00; against JAK1, 6.00 to 7.00; against JAK2, 6.00 to 7.00; against JAK3, under 6.00.
Turning to `CC(C)CN1CC(CC#N)(n2cc(-c3nc(-c4cnn(C)c4)cc4nccn34)cn2)C1` [Example 85, 2-(1-isobutyl-3-(4-(7-(1-methyl-1H-pyrazol-4-yl)imidazo[1,2-c]pyrimidin-5-yl)-1H-pyrazol-1-yl)azetidin-3-yl)acetonitrile], the pIC50 was 7.00 to 8.00 at Human Tyk2 kinase domain, 6.00 to 7.00 at JAK1, 6.00 to 7.00 at JAK2 and under 6.00 at JAK3.
`Cn1cc(-c2cc3nccn3c(-c3ccn(C4(CC#N)CN(C(=O)OC(C)(C)C)C4)n3)n2)cn1` [Example 129, Tert-butyl 3-(cyanomethyl)-3-(3-(7-(1-methyl-1H-pyrazol-4-yl)imidazo[1,2-c]pyrimidin-5-yl)-1H-pyrazol-1-yl)azetidine-1-carboxylate]: the pIC50 was 6.00 to 7.00 on Human Tyk2 kinase domain, under 6.00 against JAK1, under 6.00 against JAK2 and under 6.00 on JAK3.
In the case of `Cn1cc(-c2cc3nccn3c(-c3cnn(C4(CC#N)CN(CCC(F)(F)F)C4)c3)n2)cn1` [Example 86, 2-(3-(4-(7-(1-methyl-1H-pyrazol-4-yl)imidazo[1,2-c]pyrimidin-5-yl)-1H-pyrazol-1-yl)-1-(3,3,3-trifluoropropyl)azetidin-3-yl)acetonitrile], the pIC50 against Human Tyk2 kinase domain was 7.00 to 8.00; against JAK1, 6.00 to 7.00; at JAK2, 6.00 to 7.00; at JAK3 it was under 6.00.
